Measured values published in publication PMC9769880, “Diverse Sensory Repertoire of Paralogous Chemoreceptors Tlp2, Tlp3, and Tlp4 in Campylobacter jejuni” (Microbiology Spectrum, 2022).
Read-outs that look alike come from different tables or passages of the source.

Assays:
Tlp2 [1] = target: Tlp2 (Campylobacter jejuni, UniProt Q0PBZ3); assay: biochemical; format: binding
Procedure: (§1) His-tagged proteins (Tlp2, -3, and -4) were prepared as previously described ([11]) DNA segments encoding the periplasmic sensory domains (33 to 286 amino acids) of Tlp2 and (38 to 297 amino acids) of Tlp4 were amplified (see Table S7), ligated into pGEM-T Easy (Promega) and subcloned into pET-19b (Novagen) (see Table S6). Recombinant proteins were expressed in E. coli BL21(DE3) using 1 mM IPTG (isopropyl-β-D-thiogalactopyranoside) and purified using His-select-nickel chromatography as described previously ([8], [11]). The purity of the proteins was confirmed by SDS-PAGE and Western blot analysis with anti-His antibodies (Bio-Rad). Protein concentrations were determined using a NanoDrop spectrophotometer (Thermo Fisher).
(§2) Surface plasmon resonance (SPR) experiments were performed as described previously ([10], [11]) with the following modifications. Briefly, purified proteins were diluted to 0.15 μM in sodium acetate (pH 4.0) and immobilized onto an active flow cell of a CM5 sensor chip with a flow rate of 5 μL/min for 7 min of contact time using a standard amine coupling protocol. Immobilized protein levels for all three proteins ranged from 6028.3 to 9779.3 response units (RU) providing a minimum expected response maximum (RMax) between 20 and 50 RU for the small molecules tested. […] All ligands were prepared in PBS (pH 7.2) and serially diluted from 0.2 to 0.0125 mM. A 10-min dissociation period was allocated after the introduction of each analyte. SPR experiments were performed in single-cycle kinetics mode using the BIAcore S200 biosensor system (Cytiva) at 25°C in PBS (pH 7.2) at a flow rate of 30 μL/min. The equilibrium dissociation constant (KD) for each analyte was determined using BIAcore S200 Evaluation software with a report point 4 s after the injection stop to account for the bulk transfer of the small molecule against a large amount of immobilized protein (as shown in Fig. S5).

Tlp4 [2] = target: Tlp4 (Campylobacter jejuni, UniProt Q0PBP3); assay: biochemical; format: binding
Procedure: as §1, §2

WT Tlp3^LBD = assay: SPR competition assay (A-B-A inject); format: binding, Campylobacter jejuni; conditions: 15 seconds after injection-B; glucose 300 µM, fucose 300 μM, malic acid 200 μM
Procedure: . Competition A-B-A analyses determine the specificity of the potential ligand-binding site preferences of WT Tlp3^LBD. The bound protein is saturated with the first analyte (A), followed by the introduction of a second analyte (B); the assay is designed to show whether a cumulative response is observed after the second analyte (B) is added. A cumulative response indicates two independent binding sites, whereas the lack of a cumulative response indicates a single site where ligands compete for binding, i.e., when analyte A occupies a ligand binding site, analyte B cannot bind. […] All response data were normalized to a 100-Da molecular weight for each analyte, allowing direct comparison of the responses. Both actual RU values and theoretical values are recorded for comparison.
Figure S6. […] A) Injections are […]
at 300 μM for 60 seconds). Final responses units (RU) of injections are recorded (indicated by dashed vertical […]
81 at 15 s econds after injection- B and l fu cose […]
and fucose were compet ed was 4.4 RU ± 0.46. As this value sits be low 5 RU, it indicates direct competition for […]
Final respons es units (RU) of injections ar e re cor ded (indicated […]
As this value sits between
5.07- 13.5 RU, it indicates direct competition for the same site with glucos e replacing some of the bound malic acid during the 60 second injection- B.

Tlp3^LBD D196A = Tlp3^LBD D196A (Campylobacter jejuni, UniProt Q0P864, D196A); assay: biochemical
Tlp2 [3] = format: cell-based, C. jejuni 11168-O; conditions: for chemotactic response via Tlp2: nutrient-depleted chemotaxis assay
Procedure: (§3) The biological relevance of the binding specificities of the Tlp2,3,4 cluster was assessed by examining chemotactic responses of C. jejuni 11168-O tlp2, tlp3, and tlp4 wild-type (WT) and mutant strains using a nutrient-depleted chemotaxis assay. All ligands, with the exception of lysine and cysteine, interacted with Tlp2 and Tlp4 as attractants (Table 1), showing an ~1- to ~2-log decrease (P < 0.05) in migration toward the ligand compared to the WT strain.
(§4) Chemotaxis assays—the nutrient-depleted chemotaxis assay and the modified hard agar plug assay (tHAP)—were performed as previously described ([11], [34]). The chemotactic responses of all isogenic strains were compared to that of the C. jejuni 11168-O wild-type strain to distinguish between chemoattractants and chemorepellents. For the nutrient-depleted chemotaxis and modified hard agar plug (tHAP) assays, all differences were calculated as changes on a log10 scale. Controls were provided by using nonmotile (C. jejuni 81116 flaAB) and nonchemotactic (C. jejuni NCTC 11168 cheY) mutants ([69]) and mucin as negative and positive controls ([10]).

Tlp3 [4] = format: cell-based, C. jejuni 11168-O; conditions: for Tlp3 CR (chemoresponse): chemotaxis of mutant compared to WT strain
Procedure: as §3, §4

Tlp4 [5] = format: cell-based, C. jejuni 11168-O; conditions: nutrient-depleted chemotaxis assay
Procedure: as §3, §4

Δtlp2,3 mutant = format: cell-based; conditions: P < 0.05
Δtlp2,4 mutant = format: cell-based; conditions: P < 0.05
Δtlp3,4 mutant = format: cell-based
Δtlp2,3,4 triple mutant = format: cell-based; conditions: P < 0.05
Tlp3 [6] = test system: Tlp3; parameters: method as in PMID 24391495; conditions: cited from earlier work
[7] = SPR KD, mean ± SD, NB = no binding, read-out: Tlp2 Affinity
[8] = SPR KD, mean ± SD, NB = no binding, read-out: Tlp4 Affinity

Tlp3^LBD D196A, sequence (Q0P864 41-290 D196A): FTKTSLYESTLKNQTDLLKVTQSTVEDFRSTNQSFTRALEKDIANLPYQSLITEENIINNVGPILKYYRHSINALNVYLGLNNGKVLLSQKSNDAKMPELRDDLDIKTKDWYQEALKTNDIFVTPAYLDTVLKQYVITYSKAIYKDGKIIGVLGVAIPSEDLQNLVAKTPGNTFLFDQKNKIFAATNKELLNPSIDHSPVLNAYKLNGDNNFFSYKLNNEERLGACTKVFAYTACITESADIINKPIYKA
Tlp4 (Campylobacter jejuni, UniProt Q0PBP3), sequence (Q0PBP3 entry or part of it): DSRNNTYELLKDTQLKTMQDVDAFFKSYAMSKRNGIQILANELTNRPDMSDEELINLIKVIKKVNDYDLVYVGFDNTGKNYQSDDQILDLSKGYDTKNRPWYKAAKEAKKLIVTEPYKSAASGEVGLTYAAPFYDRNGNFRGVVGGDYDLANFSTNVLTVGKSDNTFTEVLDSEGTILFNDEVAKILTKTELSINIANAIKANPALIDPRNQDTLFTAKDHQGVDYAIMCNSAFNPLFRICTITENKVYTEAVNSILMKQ
Tlp2 (Campylobacter jejuni, UniProt Q0PBZ3), sequence (Q0PBZ3 entry or part of it): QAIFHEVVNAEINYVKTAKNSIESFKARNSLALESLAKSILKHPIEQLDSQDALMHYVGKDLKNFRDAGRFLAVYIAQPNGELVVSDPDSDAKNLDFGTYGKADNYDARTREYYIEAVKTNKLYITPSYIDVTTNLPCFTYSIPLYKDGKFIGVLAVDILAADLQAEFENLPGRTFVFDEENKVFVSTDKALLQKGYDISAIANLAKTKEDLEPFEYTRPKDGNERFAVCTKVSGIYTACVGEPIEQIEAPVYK

Compound: C[C@H](O)[C@@H](O)[C@@H](O)[C@H](O)C=O [Fucose]
- Kd (Tlp2 [1]; [7]): 15.5 ± 0.9 µM
- Kd (Tlp4 [2]; [8]): 16.2 ± 2.2 µM
- SPR response of single analyte (WT Tlp3^LBD): 9.86 RU
- Kd (Tlp3^LBD D196A): 41.9 ± 13.2 µM

Compound: NCCCC[C@H](N)C(=O)O [Lysine]
- Kd (Tlp2 [1]): 18.6 ± 1.5 µM
- Kd (Tlp4 [2]): 19.7 ± 3.9 µM
- Tlp2 CR (chemoresponse) (Tlp2 [3]; chemotaxis of mutant compared to WT strain): R
- increase in migration (Tlp2) (Tlp2 [3]; compared to the WT strain, P < 0.05): 1.4 log
- chemotactic response via Tlp2 (Tlp2 [3]): repellent
- Tlp3 CR (chemoresponse) (Tlp3 [4]): R
- chemotactic response via Tlp4 (Tlp4 [5]): attractant
- cell migration toward ligand increased, Δtlp2,3 mutant (Δtlp2,3 mutant): 1.8 log
- cell migration toward ligand decreased, Δtlp2,4 mutant (Δtlp2,4 mutant): 1.1 log
- cell migration toward ligand, Δtlp3,4 mutant (Δtlp3,4 mutant): no change in migration
- increase in cell migration, Δtlp2,3,4 triple mutant (Δtlp2,3,4 triple mutant): 1.5 log
- chemotactic response via Tlp3 (Tlp3 [6]): repellent
- Kd (Tlp3^LBD D196A): 16.1 ± 9.1 µM

Compound: CC(=O)N[C@H]1[C@H]([C@H](O)[C@H](O)CO)OC(O)(C(=O)O)C[C@@H]1O (stereo partly drawn) [Sialic acid]
- Kd (Tlp2 [1]; [7]): 1.7 ± 0.2 µM
- Kd (Tlp4 [2]; [8]): 0.8 ± 0.1 µM
- chemotactic response via Tlp2 (Tlp2 [3]): attractants
- Tlp3 CR (chemoresponse) (Tlp3 [4]): R
- chemotactic response via Tlp3 (Tlp3 [4]; nutrient-depleted chemotaxis assay): repellents
- chemotactic response via Tlp4 (Tlp4 [5]): attractants
- Kd (Tlp3^LBD D196A): 36.8 ± 3 µM
